Values of other authors, collected in patent US20250114375A1, “PHARMACEUTICAL COMPOSITION OF LIFITEGRAST AND LOTEPREDNOL ETABONATE” (ORBICULAR PHARMACEUTICAL TECHNOLOGIES PRIVATE LIMITED, priority 2022, published 2025).

Assays:
[1] = system: conjunctival goblet cells; conditions: in vivo
[2] = molecular target: T1, glucocorticoid receptors (Homo sapiens, UniProt P04150); conditions: inactive carboxylic acid metabolite of loteprednol etabonate
T1 sequence (P04150 1-777): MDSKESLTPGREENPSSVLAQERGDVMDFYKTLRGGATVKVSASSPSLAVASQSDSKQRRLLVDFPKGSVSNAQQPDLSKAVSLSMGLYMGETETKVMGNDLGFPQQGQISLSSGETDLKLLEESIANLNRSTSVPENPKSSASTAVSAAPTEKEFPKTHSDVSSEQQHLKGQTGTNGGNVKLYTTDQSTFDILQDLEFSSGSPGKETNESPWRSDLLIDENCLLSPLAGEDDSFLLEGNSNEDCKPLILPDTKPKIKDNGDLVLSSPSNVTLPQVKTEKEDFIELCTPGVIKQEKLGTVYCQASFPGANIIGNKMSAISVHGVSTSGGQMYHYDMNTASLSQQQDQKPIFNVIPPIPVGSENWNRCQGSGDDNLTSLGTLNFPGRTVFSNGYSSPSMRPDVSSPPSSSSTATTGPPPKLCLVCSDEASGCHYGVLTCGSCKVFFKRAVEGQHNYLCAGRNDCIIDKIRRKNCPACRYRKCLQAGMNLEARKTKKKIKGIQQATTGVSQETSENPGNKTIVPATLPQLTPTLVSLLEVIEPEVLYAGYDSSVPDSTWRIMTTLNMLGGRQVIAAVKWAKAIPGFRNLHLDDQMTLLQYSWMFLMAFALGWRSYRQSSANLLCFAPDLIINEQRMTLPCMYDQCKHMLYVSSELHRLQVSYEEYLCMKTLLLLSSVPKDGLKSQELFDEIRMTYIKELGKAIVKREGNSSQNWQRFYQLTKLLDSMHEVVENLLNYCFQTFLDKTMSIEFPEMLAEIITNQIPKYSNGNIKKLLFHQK

## CS(=O)(=O)c1cccc(C[C@H](NC(=O)c2c(Cl)cc3c(c2Cl)CCN(C(=O)c2ccc4ccoc4c2)C3)C(=O)O)c1 [Lifitegrast]
[1]
  increase of goblet cell area: 22%
  increase of the number of conjunctival goblet cells: 39%

## CCOC(=O)OC1(C(=O)O)CCC2C3CCC4=CC(=O)C=CC4(C)C3C(O)CC21C (stereo not drawn) [PJ-91]
[2]
  binding to glucocorticoid receptors: does not bind
